Data: BindingDB's records for doi:10.1016/s0960-894x(02)00300-1 (University of Illinois At Chicago, 2002)

Target: T1, Dimer of Gag-Pol polyprotein [501-599,Q508K,L534I,L564I,C568A,C596A] (Human immunodeficiency virus 1, UniProt P03367, C568A/C596A/L534I/L564I/Q508K)
T1 construct: 501-599
Assay: Protease Inhibition Assay
Details: pH 6.4; 25 °C
Protocol: The Ki values were determined using fluorogenic substrate, 2-(aminobenzoyl)-Thr-Ile-Nle-Phe(p-NO2)-Gln-ArgNH2. A standard curve relating changes in fluorescent intensity to changes in concentration of product was used to convert fluorescent changes into molar velocities. The amount of cleavage was determined by HPLC.

Row | Compound | Ki
1 | C=CCCCCCCCC(OC(=O)N(CC=C)C[C@@H](O)[C@H](Cc1ccccc1)NC(=O)O[C@H]1CO[C@H]2OCC[C@H]21)c1ccccc1 (stereo partly drawn) [(3R,3aS,6aR)-hexahydrofuro[2,3-b]furan-3-yl N-[(2S,3R)-3-hydroxy-1-phenyl-4-({[(1-phenyldec-9-en-1-yl)oxy]carbonyl}(prop-2-en-1-yl)amino)butan-2-yl]carbamate] | > 1 µM
2 | O=C(N[C@@H](Cc1ccccc1)[C@H](O)CN1CCCCCCCCC=CCCOC1=O)O[C@H]1CO[C@H]2OCC[C@H]21 [(3R,3aS,6aR)-hexahydrofuro[2,3-b]furan-3-yl N-[(2S,3R)-3-hydroxy-4-(2-oxo-1-oxa-3-azacyclopentadec-12-en-3-yl)-1-phenylbutan-2-yl]carbamate] | 0.088 µM
3 | O=C(N[C@@H](Cc1ccccc1)[C@H](O)CN1CCCCCCCCCCCCOC1=O)O[C@H]1CO[C@H]2OCC[C@H]21 [(3R,3aS,6aR)-hexahydrofuro[2,3-b]furan-3-yl N-[(2S,3R)-3-hydroxy-4-(2-oxo-1-oxa-3-azacyclopentadecan-3-yl)-1-phenylbutan-2-yl]carbamate] | 0.014 µM
4 | O=C(N[C@@H](Cc1ccccc1)[C@H](O)CN1CCCCCCCCCCCOC1=O)O[C@H]1CO[C@H]2OCC[C@H]21 [(3R,3aS,6aR)-hexahydrofuro[2,3-b]furan-3-yl N-[(2S,3R)-3-hydroxy-4-(2-oxo-1-oxa-3-azacyclotetradecan-3-yl)-1-phenylbutan-2-yl]carbamate] | 0.08 µM
5 | O=C(N[C@@H](Cc1ccccc1)[C@H](O)CN1CCCCCCCCCCC(c2ccccc2)OC1=O)O[C@H]1CO[C@H]2OCC[C@H]21 (stereo partly drawn) [(3R,3aS,6aR)-hexahydrofuro[2,3-b]furan-3-yl N-[(2S,3R)-3-hydroxy-4-(2-oxo-14-phenyl-1-oxa-3-azacyclotetradecan-3-yl)-1-phenylbutan-2-yl]carbamate] | 0.189 µM
6 | O=C(N[C@@H](Cc1ccccc1)[C@H](O)CN1CCCCCCCCC=CCC(c2ccccc2)OC1=O)O[C@H]1CO[C@H]2OCC[C@H]21 (stereo partly drawn) [(3R,3aS,6aR)-hexahydrofuro[2,3-b]furan-3-yl N-[(2S,3R)-3-hydroxy-4-(2-oxo-15-phenyl-1-oxa-3-azacyclopentadec-12-en-3-yl)-1-phenylbutan-2-yl]carbamate] | 0.167 µM
7 | O=C(N[C@@H](Cc1ccccc1)[C@H](O)CN1CCCCCCCCCCCC(c2ccccc2)OC1=O)O[C@H]1CO[C@H]2OCC[C@H]21 (stereo partly drawn) [(3R,3aS,6aR)-hexahydrofuro[2,3-b]furan-3-yl N-[(2S,3R)-3-hydroxy-4-(2-oxo-15-phenyl-1-oxa-3-azacyclopentadecan-3-yl)-1-phenylbutan-2-yl]carbamate] | 0.357 µM
8 | O=C(N[C@@H](Cc1ccccc1)[C@H](O)CN1CCCCC=CCCCCCCC(c2ccccc2)OC1=O)O[C@H]1CO[C@H]2OCC[C@H]21 (stereo partly drawn) [(3R,3aS,6aR)-hexahydrofuro[2,3-b]furan-3-yl N-[(2S,3R)-3-hydroxy-4-(2-oxo-16-phenyl-1-oxa-3-azacyclohexadec-8-en-3-yl)-1-phenylbutan-2-yl]carbamate] | 0.162 µM
9 | O=C(N[C@@H](Cc1ccccc1)[C@H](O)CN1CCCCCCCCCCCCC(c2ccccc2)OC1=O)O[C@H]1CO[C@H]2OCC[C@H]21 (stereo partly drawn) [(3R,3aS,6aR)-hexahydrofuro[2,3-b]furan-3-yl N-[(2S,3R)-3-hydroxy-4-(2-oxo-16-phenyl-1-oxa-3-azacyclohexadecan-3-yl)-1-phenylbutan-2-yl]carbamate] | 0.268 µM
10 | CC1CC=CCCCCCCCCOC(=O)N1C[C@@H](O)[C@H](Cc1ccccc1)NC(=O)O[C@H]1CO[C@H]2OCC[C@H]21 (stereo partly drawn) [(3R,3aS,6aR)-hexahydrofuro[2,3-b]furan-3-yl N-[(2S,3R)-3-hydroxy-4-(4-methyl-2-oxo-1-oxa-3-azacyclopentadec-6-en-3-yl)-1-phenylbutan-2-yl]carbamate] | 0.053 µM
11 | CC1CCCCCCCCCCCOC(=O)N1C[C@@H](O)[C@H](Cc1ccccc1)NC(=O)O[C@H]1CO[C@H]2OCC[C@H]21 (stereo partly drawn) [(3R,3aS,6aR)-hexahydrofuro[2,3-b]furan-3-yl N-[(2S,3R)-3-hydroxy-4-(4-methyl-2-oxo-1-oxa-3-azacyclopentadecan-3-yl)-1-phenylbutan-2-yl]carbamate] | 0.03 µM
12 | CC1CC=CCCCCCCCOC(=O)N(C[C@@H](O)[C@H](Cc2ccccc2)NC(=O)O[C@H]2CO[C@H]3OCC[C@H]32)C1 (stereo partly drawn) [(3R,3aS,6aR)-hexahydrofuro[2,3-b]furan-3-yl N-[(2S,3R)-3-hydroxy-4-(5-methyl-2-oxo-1-oxa-3-azacyclopentadec-7-en-3-yl)-1-phenylbutan-2-yl]carbamate] | 0.011 µM
13 | CC1CCCCCCCCCCOC(=O)N(C[C@@H](O)[C@H](Cc2ccccc2)NC(=O)O[C@H]2CO[C@H]3OCC[C@H]32)C1 (stereo partly drawn) [(3R,3aS,6aR)-hexahydrofuro[2,3-b]furan-3-yl N-[(2S,3R)-3-hydroxy-4-(5-methyl-2-oxo-1-oxa-3-azacyclopentadecan-3-yl)-1-phenylbutan-2-yl]carbamate] | 0.0061 µM
14 | O=C(N[C@@H](Cc1ccccc1)[C@H](O)CN1C/C=C\CCCCCCCCOC1=O)O[C@H]1CO[C@H]2OCC[C@H]21 [(3R,3aS,6aR)-hexahydrofuro[2,3-b]furan-3-yl N-[(2S,3R)-3-hydroxy-4-[(5Z)-2-oxo-1-oxa-3-azacyclotetradec-5-en-3-yl]-1-phenylbutan-2-yl]carbamate] | 0.125 µM
15 | O=C(N[C@@H](Cc1ccccc1)[C@H](O)CN1C/C=C\CCCCCCCC(c2ccccc2)OC1=O)O[C@H]1CO[C@H]2OCC[C@H]21 (stereo partly drawn) [(3R,3aS,6aR)-hexahydrofuro[2,3-b]furan-3-yl N-[(2S,3R)-3-hydroxy-4-[(5Z)-2-oxo-14-phenyl-1-oxa-3-azacyclotetradec-5-en-3-yl]-1-phenylbutan-2-yl]carbamate] | 0.229 µM
16 | CC(C)(C)NC(=O)[C@@H]1C[C@@H]2CCCC[C@@H]2CN1C[C@@H](O)[C@H](Cc1ccccc1)NC(=O)O[C@H]1CO[C@H]2OCC[C@H]21 [(3R,3aS,6aR)-hexahydrofuro[2,3-b]furan-3-yl N-[(2S,3R)-4-[(3S,4aS,8aS)-3-(tert-butylcarbamoyl)-decahydroisoquinolin-2-yl]-3-hydroxy-1-phenylbutan-2-yl]carbamate] | 0.002 µM
17 | C=CCCCCCCCCN(C[C@@H](O)[C@H](Cc1ccccc1)NC(=O)O[C@H]1CO[C@H]2OCC[C@H]21)C(=O)OC(CC=C)c1ccccc1 (stereo partly drawn) [(3R,3aS,6aR)-hexahydrofuro[2,3-b]furan-3-yl N-[(2S,3R)-4-[dec-9-en-1-yl({[(1-phenylbut-3-en-1-yl)oxy]carbonyl})amino]-3-hydroxy-1-phenylbutan-2-yl]carbamate] | > 1 µM
18 | C=CCCCCCCC(OC(=O)N(CCCCC=C)C[C@@H](O)[C@H](Cc1ccccc1)NC(=O)O[C@H]1CO[C@H]2OCC[C@H]21)c1ccccc1 (stereo partly drawn) [(3R,3aS,6aR)-hexahydrofuro[2,3-b]furan-3-yl N-[(2S,3R)-4-[hex-5-en-1-yl({[(1-phenylnon-8-en-1-yl)oxy]carbonyl})amino]-3-hydroxy-1-phenylbutan-2-yl]carbamate] | 0.444 µM
19 | C=CCCCCCCCCN(C[C@@H](O)[C@H](Cc1ccccc1)NC(=O)O[C@H]1CO[C@H]2OCC[C@H]21)C(=O)OCCC=C [but-3-en-1-yl N-[(2R,3S)-3-({[(3R,3aS,6aR)-hexahydrofuro[2,3-b]furan-3-yloxy]carbonyl}amino)-2-hydroxy-4-phenylbutyl]-N-(dec-9-en-1-yl)carbamate] | > 1 µM
20 | C=CCCCCCCCCOC(=O)N(C[C@@H](O)[C@H](Cc1ccccc1)NC(=O)O[C@H]1CO[C@H]2OCC[C@H]21)C(C)CC=C (stereo partly drawn) [dec-9-en-1-yl N-[(2R,3S)-3-({[(3R,3aS,6aR)-hexahydrofuro[2,3-b]furan-3-yloxy]carbonyl}amino)-2-hydroxy-4-phenylbutyl]-N-(pent-4-en-2-yl)carbamate] | > 1 µM
21 | C=CCCCCCCCCOC(=O)N(CC=C)C[C@@H](O)[C@H](Cc1ccccc1)NC(=O)O[C@H]1CO[C@H]2OCC[C@H]21 [dec-9-en-1-yl N-[(2R,3S)-3-({[(3R,3aS,6aR)-hexahydrofuro[2,3-b]furan-3-yloxy]carbonyl}amino)-2-hydroxy-4-phenylbutyl]-N-(prop-2-en-1-yl)carbamate] | > 1 µM
22 | C=CCCCCCCCOC(=O)N(CC(C)CC=C)C[C@@H](O)[C@H](Cc1ccccc1)NC(=O)O[C@H]1CO[C@H]2OCC[C@H]21 (stereo partly drawn) [non-8-en-1-yl N-[(2R,3S)-3-({[(3R,3aS,6aR)-hexahydrofuro[2,3-b]furan-3-yloxy]carbonyl}amino)-2-hydroxy-4-phenylbutyl]-N-(2-methylpent-4-en-1-yl)carbamate] | > 1 µM
